Measurements reported in patent US20200247855A1, “THERAPY AND DIAGNOSTICS” (OXFORD UNIVERSITY INNOVATION LIMITED, priority 2017, published 2020).
No end group written: not given here.

How the values were obtained:
CCL8 homodimer = target: T1, CCL8 homodimer (Homo sapiens, UniProt P80075); assay: Native mass spectrometry of CCL8 with peptide; settings: 1:1 CCL8 monomer:BK1.1
T1 construct: purchased Peprotech (UK)
T1 sequence (P80075 24-99): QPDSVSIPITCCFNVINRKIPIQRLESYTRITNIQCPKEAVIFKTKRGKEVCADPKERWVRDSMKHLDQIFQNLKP
Description: Mid panel: In-solution dissociation of CCL8 dimer and further binding of CCL8 to one and two BK-1. Confirmation of CCL8/BK-1 complex by HCD gas-phase dissociation of isolated precursor ions: Bottom panel, left: 2217 m/z corresponding to CCL8/BK-1 (1:1) and Bottom panel, […]: 2555 m/z corresponding to CCL8/BK-1 (1:2). Buffers contained up to 0.5% DMSO. All analyses were performed in triplicate.
Samples were analysed using a modified Q-Exactive mass spectrometer (Thermo Fisher Scientific) for high-mass range measurements (Gault, J. et al., Nature methods [2016]). CCL8 was buffered exchanged into 200 mM ammonium acetate solution (pH=6.5). […] In all cases no more than 0.5% DMSO was present in the final mixture, and a control sample of CCL8 homodimer containing 0.5% DMSO was also analysed. Instrumental parameters were set to: capillary voltage of 1.2 KV, source temperature of 50° C. and 60 V of source induced dissociation (SID). Gas phase dissociation was carried out by applying 35 and 55 V of higher-energy collisional dissociation (HCD) to the most intense charge state after isolation (25 m/z window). Spectra was acquired using a mass resolution of 60,000 for both precursor and dissociated product ions. All measurements were done in triplicates.

[1] = target: T2, His-tagged P672-biotinylated CCL3 interaction (Homo sapiens, UniProt P10147); assay: AlphaScreen disruption of P672:chemokine interaction; format: binding; settings: AlphaScreen dose-response
T2 construct: host or cells: P672: HEK293F (in-house); biotinylated CCL3: not described
T2 sequence (P10147 24-92): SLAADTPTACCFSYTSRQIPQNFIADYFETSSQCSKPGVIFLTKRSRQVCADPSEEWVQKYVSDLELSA
Description: (§1) B-D. Effect of indicated peptides at a concentration of 100 μM on a His-tagged P672-biotinylated CCL8, CCL2 or CCL3 interaction respectively using an AlphaScreen assay. In each panel. […] Data are presented as mean±s.e.m. of three independent experiments, shown as individual data points.
(§2) Data are shown as mean of two technical replicates. Curves were fitted with 4 parameters to estimate IC50.
(§3) The binding of these peptides to CCL8 was assayed by examining their ability to disrupt the P672:CCL8 interaction using an AlphaScreen assay (FIG. 20E, H). […] BK1 derivatives were tested for their ability to inhibit P672 interactions with CCL2 and CCL3 using AlphaScreen (FIG. 20 F, G, I, J).
(§4) AlphaScreen® Histidine detection kit was purchased from PerkinElmer (6760619M lot: 2457886) and the assay was set up in white bottom Proxiplate™ 384 Plus microplates (PerkinElmer) following the manufacturer's instructions. The assay buffer used was 50 mM HEPES, 150 mM NaCl, 0.1% BSA, 0.01% Tween20, 1% DMSO, pH 7.5 and the final volume in each well was 20 μL. Briefly, biotinylated chemokine (recombinant, final concentration 1.25 nM (CCL8), 5 nM (CCL2) and 2.5 nM (CCL3)) was pre-incubated at room temperature for 15 min with different concentrations of each peptide. His-tagged P672 (final concentration 2.5 nM (CCL8), 5 nM (CCL2) and 1.25 nM (CCL3)) was then added to each well and the plate was incubated at room temperature for 30 min. Finally, acceptor and donor beads were added as a 1:1 suspension in buffer to each well and the plate was further incubated at RT for 1 h. Data was obtained by reading the plate using a Pherastar FSX plate reader (excitation 680 nm, emission 570 nm) and was analysed using GraphPad Prism.

[2] = target: T3, His-tagged P672-biotinylated CCL2 interaction (Homo sapiens, UniProt P13500); assay: as above; format: binding
T3 construct: host or cells: P672: HEK293F (in-house); biotinylated CCL2: not described
T3 sequence (P13500 24-99): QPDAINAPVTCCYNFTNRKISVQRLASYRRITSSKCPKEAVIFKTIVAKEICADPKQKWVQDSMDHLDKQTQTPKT
Description: as §1, §2, §3, §4

EDEDYEDFFKPVTAYF-NH2 [BK1.1] was tested, and the “Effect on CCL8 homodimerization” value (CCL8 homodimer) was “disrupt CCL8 homodimerization”, the “Inhibition of P672 interaction with CCL3 (BK1 derivatives)” value [1] was “did not inhibit” and the “Inhibition of P672 interaction with CCL2 (BK1 derivatives)” value ([2]; AlphaScreen dose-response) was “did not inhibit”. For the same substance, the “Disruption of the P672-CCL2 interaction” value ([2]; AlphaScreen, peptide 100 μM) was “disrupted”.
